{"source": "patent US20210228545A1", "about": "“METHODS OF TREATING CONDITIONS RELATED TO THE S1P1 RECEPTOR” (Arena Pharmaceuticals, Inc., priority 2018, published 2021)", "key": {"OCT2": {"target": "T1, OCT2 (Homo sapiens, UniProt O15244)", "T1 construct": "expressed in transfected cells; host or cells: HEK293", "T1 sequence (O15244 1-555)": "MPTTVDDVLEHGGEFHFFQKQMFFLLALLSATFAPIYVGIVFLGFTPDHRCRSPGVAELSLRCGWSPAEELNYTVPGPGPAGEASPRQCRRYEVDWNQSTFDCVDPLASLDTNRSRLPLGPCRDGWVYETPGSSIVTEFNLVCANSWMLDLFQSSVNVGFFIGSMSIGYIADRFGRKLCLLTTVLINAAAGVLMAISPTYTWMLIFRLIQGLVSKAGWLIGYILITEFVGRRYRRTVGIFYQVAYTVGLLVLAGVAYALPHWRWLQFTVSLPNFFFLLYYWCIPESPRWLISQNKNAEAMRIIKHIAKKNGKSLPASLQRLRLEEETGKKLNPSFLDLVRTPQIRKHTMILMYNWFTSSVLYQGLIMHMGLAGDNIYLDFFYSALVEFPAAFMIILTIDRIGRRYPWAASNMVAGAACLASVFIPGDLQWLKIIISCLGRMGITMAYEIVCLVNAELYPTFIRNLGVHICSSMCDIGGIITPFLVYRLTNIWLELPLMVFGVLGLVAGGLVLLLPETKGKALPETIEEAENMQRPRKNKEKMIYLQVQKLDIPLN", "assay": "Transporter inhibition, HEK293 cells", "assay_type": "in vitro ADME", "conditions": "[14C]-metformin (10 μM), 1 and 10 μM tested"}, "CYP1A2 mRNA": {"test_system": "CYP1A2 mRNA", "assay": "CYP induction in cultured human hepatocytes", "assay_type": "in vitro ADME", "conditions": "up to 10 μM"}, "BSEP": {"target": "T2, BSEP (Homo sapiens, UniProt O95342)", "T2 construct": "host or cells: membrane vesicles", "T2 sequence (O95342 whole entry)": "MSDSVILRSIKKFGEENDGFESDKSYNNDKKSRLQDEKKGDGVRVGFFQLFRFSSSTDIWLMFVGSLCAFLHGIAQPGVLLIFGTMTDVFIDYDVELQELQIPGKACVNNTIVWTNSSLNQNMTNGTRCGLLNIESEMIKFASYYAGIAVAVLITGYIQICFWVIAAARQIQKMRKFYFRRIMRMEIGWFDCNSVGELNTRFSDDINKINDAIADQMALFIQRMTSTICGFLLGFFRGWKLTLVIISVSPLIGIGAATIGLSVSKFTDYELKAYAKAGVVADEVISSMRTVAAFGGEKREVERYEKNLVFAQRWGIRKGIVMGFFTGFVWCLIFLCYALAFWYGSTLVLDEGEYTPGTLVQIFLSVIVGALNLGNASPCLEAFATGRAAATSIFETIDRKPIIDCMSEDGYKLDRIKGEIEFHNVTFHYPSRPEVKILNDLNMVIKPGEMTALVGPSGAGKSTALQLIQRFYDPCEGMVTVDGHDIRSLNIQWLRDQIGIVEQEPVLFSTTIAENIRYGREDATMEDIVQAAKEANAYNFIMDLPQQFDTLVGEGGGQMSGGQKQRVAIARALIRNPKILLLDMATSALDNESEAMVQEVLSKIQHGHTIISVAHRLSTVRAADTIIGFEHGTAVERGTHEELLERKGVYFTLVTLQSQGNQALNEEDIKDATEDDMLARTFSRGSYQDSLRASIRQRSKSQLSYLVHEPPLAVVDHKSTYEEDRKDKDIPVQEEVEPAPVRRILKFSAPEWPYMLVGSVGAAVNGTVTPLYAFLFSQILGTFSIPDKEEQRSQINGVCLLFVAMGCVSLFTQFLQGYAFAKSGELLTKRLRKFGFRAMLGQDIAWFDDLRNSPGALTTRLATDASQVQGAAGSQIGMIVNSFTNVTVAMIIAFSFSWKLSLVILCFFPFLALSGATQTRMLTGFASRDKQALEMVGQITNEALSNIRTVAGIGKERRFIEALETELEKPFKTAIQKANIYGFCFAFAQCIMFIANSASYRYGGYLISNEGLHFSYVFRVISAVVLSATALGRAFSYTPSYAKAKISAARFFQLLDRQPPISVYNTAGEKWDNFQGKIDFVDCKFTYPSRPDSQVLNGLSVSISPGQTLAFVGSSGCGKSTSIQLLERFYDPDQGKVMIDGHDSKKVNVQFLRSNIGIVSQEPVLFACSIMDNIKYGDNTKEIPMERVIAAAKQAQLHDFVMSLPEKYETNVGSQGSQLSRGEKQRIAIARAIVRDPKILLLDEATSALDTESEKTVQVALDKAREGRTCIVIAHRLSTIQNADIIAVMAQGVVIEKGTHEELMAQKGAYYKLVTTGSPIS", "assay": "Transporter inhibition, vesicular transport assay", "assay_type": "in vitro ADME"}, "MATE2-K": {"target": "T3, MATE2-K (Homo sapiens, UniProt Q86VL8)", "T3 construct": "expressed in transfected cells; host or cells: HEK293", "T3 sequence (Q86VL8 1-566 isoform Q86VL8-3)": "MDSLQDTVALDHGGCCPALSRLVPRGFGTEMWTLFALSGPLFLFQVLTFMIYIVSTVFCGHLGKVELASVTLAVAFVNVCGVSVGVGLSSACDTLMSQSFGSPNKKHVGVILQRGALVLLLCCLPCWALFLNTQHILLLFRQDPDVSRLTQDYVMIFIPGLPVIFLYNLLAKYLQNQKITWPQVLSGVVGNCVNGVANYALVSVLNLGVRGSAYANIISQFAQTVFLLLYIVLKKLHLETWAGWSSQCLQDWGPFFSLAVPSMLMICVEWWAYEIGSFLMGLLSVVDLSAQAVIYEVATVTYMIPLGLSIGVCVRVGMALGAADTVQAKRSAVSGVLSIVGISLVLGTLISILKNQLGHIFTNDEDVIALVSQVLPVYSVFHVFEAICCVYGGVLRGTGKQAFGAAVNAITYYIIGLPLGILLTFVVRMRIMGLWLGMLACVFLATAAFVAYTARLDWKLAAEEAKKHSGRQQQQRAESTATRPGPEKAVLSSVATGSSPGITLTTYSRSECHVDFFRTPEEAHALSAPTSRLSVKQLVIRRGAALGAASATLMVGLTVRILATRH", "assay": "Transporter inhibition, HEK293 cells", "assay_type": "in vitro ADME"}, "CYP2B6": {"test_system": "CYP2B6", "assay": "CYP induction in cultured human hepatocytes", "assay_type": "in vitro ADME", "conditions": "criteria >2-fold mRNA increase and ≥20% of positive control"}, "CYP enzymes": {"test_system": "CYP enzymes", "assay": "Metabolism-dependent inhibition of CYP enzymes in human liver microsomes", "assay_type": "in vitro ADME", "conditions": "30 min preincubation with NADPH-regenerating system", "text": "Known metabolism-dependent and/or direct inhibitors of CYP and UGT enzymes were included as positive controls, as applicable."}, "OATP1B1": {"target": "T4, OATP1B1 (Homo sapiens, UniProt Q9Y6L6)", "T4 sequence (Q9Y6L6 1-691)": "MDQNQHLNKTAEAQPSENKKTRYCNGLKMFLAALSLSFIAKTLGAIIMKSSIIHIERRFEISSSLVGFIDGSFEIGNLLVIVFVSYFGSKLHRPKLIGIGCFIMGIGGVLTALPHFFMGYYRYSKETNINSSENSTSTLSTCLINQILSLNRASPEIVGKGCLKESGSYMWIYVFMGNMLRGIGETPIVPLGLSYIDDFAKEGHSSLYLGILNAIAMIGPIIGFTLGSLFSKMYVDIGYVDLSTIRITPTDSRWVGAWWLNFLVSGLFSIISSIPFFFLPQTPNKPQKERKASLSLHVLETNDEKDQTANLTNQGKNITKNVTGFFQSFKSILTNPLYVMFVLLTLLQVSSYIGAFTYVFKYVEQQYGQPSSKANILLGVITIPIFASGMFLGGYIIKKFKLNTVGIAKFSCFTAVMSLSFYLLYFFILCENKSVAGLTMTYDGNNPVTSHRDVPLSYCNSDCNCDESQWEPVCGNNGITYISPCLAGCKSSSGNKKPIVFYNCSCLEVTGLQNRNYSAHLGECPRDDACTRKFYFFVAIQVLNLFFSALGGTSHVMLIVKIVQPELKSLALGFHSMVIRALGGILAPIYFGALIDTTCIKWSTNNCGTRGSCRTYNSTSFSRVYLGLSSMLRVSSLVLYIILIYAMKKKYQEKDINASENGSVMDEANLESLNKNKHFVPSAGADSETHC", "assay": "Transporter substrate evaluation, HEK293 cells", "assay_type": "in vitro ADME", "design": "expressed in transfected cells; host or cells: HEK293", "conditions": "1 and 10 μM"}, "BCRP": {"target": "T5, BCRP (Homo sapiens, UniProt Q9UNQ0)", "T5 sequence (Q9UNQ0 1-655)": "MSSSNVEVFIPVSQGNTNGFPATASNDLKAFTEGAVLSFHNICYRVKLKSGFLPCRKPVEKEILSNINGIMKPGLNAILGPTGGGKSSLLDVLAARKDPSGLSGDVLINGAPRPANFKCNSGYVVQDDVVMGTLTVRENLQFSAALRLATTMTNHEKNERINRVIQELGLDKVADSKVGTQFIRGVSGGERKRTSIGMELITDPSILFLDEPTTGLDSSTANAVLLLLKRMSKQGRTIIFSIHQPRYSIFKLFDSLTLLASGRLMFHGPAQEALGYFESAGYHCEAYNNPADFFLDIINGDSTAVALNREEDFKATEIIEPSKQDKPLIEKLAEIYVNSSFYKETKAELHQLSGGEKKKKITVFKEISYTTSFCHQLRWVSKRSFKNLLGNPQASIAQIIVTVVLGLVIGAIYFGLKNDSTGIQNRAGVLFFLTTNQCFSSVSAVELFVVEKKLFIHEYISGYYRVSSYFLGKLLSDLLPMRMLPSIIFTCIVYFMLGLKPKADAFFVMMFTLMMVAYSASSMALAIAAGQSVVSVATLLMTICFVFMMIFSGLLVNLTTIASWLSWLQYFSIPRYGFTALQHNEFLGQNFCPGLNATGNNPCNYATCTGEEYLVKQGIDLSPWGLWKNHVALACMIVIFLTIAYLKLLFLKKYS", "assay": "Transporter substrate evaluation, MDCKII-BCRP cells", "assay_type": "in vitro ADME"}, "P-gp": {"target": "P-gp (Homo sapiens, UniProt P08183)", "sequence (P08183 whole entry)": "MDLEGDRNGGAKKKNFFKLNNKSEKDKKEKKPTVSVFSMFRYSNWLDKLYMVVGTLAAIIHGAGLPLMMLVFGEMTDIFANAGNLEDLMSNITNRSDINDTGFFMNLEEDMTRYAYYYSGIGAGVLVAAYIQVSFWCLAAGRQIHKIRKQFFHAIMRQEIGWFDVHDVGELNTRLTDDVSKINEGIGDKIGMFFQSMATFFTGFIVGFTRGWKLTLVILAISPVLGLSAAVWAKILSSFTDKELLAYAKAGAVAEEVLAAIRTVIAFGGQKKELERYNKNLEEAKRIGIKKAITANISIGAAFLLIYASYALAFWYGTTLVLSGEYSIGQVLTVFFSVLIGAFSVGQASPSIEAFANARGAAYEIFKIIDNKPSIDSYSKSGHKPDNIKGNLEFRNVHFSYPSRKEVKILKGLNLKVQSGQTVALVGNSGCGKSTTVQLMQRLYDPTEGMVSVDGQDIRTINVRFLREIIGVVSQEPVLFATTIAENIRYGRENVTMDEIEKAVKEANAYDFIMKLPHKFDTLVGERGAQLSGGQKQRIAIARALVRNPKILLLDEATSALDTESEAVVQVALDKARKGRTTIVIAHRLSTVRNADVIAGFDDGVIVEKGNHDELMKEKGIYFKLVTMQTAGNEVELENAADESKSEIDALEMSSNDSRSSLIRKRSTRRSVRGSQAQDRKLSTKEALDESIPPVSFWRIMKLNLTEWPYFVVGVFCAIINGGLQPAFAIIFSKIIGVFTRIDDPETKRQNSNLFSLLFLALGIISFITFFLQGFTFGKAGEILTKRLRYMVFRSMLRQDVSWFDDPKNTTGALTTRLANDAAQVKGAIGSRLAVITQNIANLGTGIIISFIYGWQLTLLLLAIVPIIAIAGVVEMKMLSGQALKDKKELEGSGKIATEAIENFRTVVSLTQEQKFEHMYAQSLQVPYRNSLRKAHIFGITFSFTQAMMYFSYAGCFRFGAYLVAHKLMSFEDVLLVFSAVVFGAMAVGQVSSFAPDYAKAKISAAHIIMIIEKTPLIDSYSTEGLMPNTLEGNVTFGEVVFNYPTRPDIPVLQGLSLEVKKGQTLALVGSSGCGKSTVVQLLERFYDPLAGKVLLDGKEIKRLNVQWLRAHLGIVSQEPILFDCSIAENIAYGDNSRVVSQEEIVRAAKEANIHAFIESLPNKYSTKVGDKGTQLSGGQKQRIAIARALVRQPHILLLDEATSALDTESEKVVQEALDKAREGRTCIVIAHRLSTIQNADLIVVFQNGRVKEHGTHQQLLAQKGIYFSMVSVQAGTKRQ", "assay": "Transporter inhibition, Caco-2 cells"}}, "note": "Entries after “also recorded” stand apart in the source; their conditions may differ.", "data": [{"smiles": "O=C(O)C[C@H]1CCc2c1[nH]c1ccc(OCc3ccc(C4CCCC4)c(C(F)(F)F)c3)cc21", "note": "[Compound 1, (R)-2-(7-(4-cyclopentyl-3-(trifluoromethyl)benzyloxy)-1,2,3,4-tetrahydrocyclopenta[b]indol-3-yl)acetic acid]", "values": [{"measurement": "IC50", "setting": "OCT2", "value": "> 10", "unit": "µM"}, {"measurement": "Induction potential on CYP1A2 mRNA", "setting": "CYP1A2 mRNA", "value": "no induction potential; also recorded: not a potential inducer"}, {"measurement": "Reduction of ATP-dependent uptake of [3H]-taurocholic acid in BSEP-expressing vesicles (inhibition)", "setting": "BSEP; 1 and 10 μM", "value": "less than 50%"}, {"measurement": "IC50", "setting": "BSEP; vesicles, [3H]-taurocholic acid (0.4 μM), 1 and 10 μM tested", "value": "> 10", "unit": "µM"}, {"measurement": "IC50", "setting": "MATE2-K; HEK293 cells, [14C]-metformin (10 μM), 1 and 10 μM tested", "value": "> 10", "unit": "µM"}, {"measurement": "Inhibition of MATE2-K", "setting": "MATE2-K; up to 10 μM", "value": "less than 50%"}, {"measurement": "Induction potential for CYP2B6", "setting": "CYP2B6", "value": "no induction potential; also recorded: not a potential inducer"}, {"measurement": "Metabolism-dependent inhibition of CYPs", "setting": "CYP enzymes", "value": "little or no evidence of metabolism-dependent inhibition"}, {"measurement": "Potential substrate of OATP1B1", "setting": "OATP1B1; HEK293 cells", "value": "not a substrate of OATP1B1 and not a substrate and No"}, {"measurement": "Uptake ratio into OATP1B1-expressing cells", "setting": "OATP1B1; absence and presence of rifampin", "value": "less than two"}, {"measurement": "Efflux ratio of Compound 1 across MDCKII-BCRP cells", "setting": "BCRP; 1 μM, absence and presence of Ko143 (1 μM)", "value": "less than two"}, {"measurement": "efflux ratio at 10 μM", "setting": "BCRP; human, 10 μM", "value": 7.36}, {"measurement": "recovery", "setting": "BCRP; human, MDCKII-BCRP assay", "value": "27 to 48", "unit": "%"}, {"measurement": "P-gp inhibition", "setting": "P-gp; 10 μM Compound 1", "value": "no P-gp inhibition"}, {"measurement": "Reduction of efflux ratio of digoxin (10 μM) across Caco-2 cells", "setting": "P-gp; 100 μM Compound 1", "value": 50, "unit": "%"}]}]}
